# According to paper PMC6372612, “Immunoglobulin G modulation of the melanocortin 4 receptor signaling in obesity and eating disorders” (Translational Psychiatry, 2019):
# “Also recorded” adds a separate entry of the source.
# Experiments:
# [1] = biological target: human melanocortin 4 receptor (human) (UniProt P32245)
# [2] = biological target: human melanocortin 4 receptor (human) (UniProt P32245); test: SPR; BIAcore 1000; hMC4R-expressing HEK 293 cells coated on the biosensor surface; analyte α-MSH in immune complex with IgG from obese patients; Langmuir 1:1 fit after blank subtraction
# human MC4R = test: cAMP production by MC4R-expressing HEK 293 cells; type: cell-based; settings: AgRP 100 nM, 45 min preincubation or co-administered; n = 2/group
# [3] = cited from earlier work
# Description: In fact, the role of both the N- and C-terminals of α-MSH in binding to different MCR subtypes has been shown, with the C-terminal being essential for MC4R recognition. Thus hiding of the C-terminal by IgG in OB patients appears as a negative modulator of α-MSH/IgG IC activation of MC4R. […] 12–13 of the α-MSH C-terminal have also been detected in narcolept ...
# male Sprague-Dawley rats = test: Food intake in rats after intra-PVN injection of α-MSH or α-MSH/IgG IC; type: in vivo, rat; settings: intra-PVN 2 µL α-MSH 2.5 mg/mL; 12-h fasted rats; vs aCSF
# Experimental: Animal care and experimentation were in accordance with guidelines established by the National Institutes of Health, French and European Community regulations (Official Journal of the European Community L 358, 18/12/1986) and the study was approved by a Regional Ethical Committee (Rouen, France). Sample sizes were selected based on previous experiments. Non-randomized male Sprague-Dawley rats were anesthetized by ketamine (75 mg/kg, Virbac, Carros, France)/xylazine (5 mg/kg, Bayer, Leverkusen, France) solution (3:1 vol., 0.1 mL/100 g, intraperitoneal (IP)) and were stereotaxically implanted with a 9-mm guide cannula (PlasticsOne, Roanoke, VA, USA) into the paraventricular nucleus (PVN). Upon awakening, rats were individually maintained in metabolic cages (Techniplast, Louviers, France) for 5–6 days. […] Food intake was measured 30 min and 2 h after injection.
# Animal care and experimentation were in accordance with guidelines established by the National Institutes of Health, French and European Community regulations (Official Journal of the European Community L 358, 18/12/1986). […] Food intake was measured 30 min and 2 h after injection. […]
# wild-type C57Bl/6 mice = test: Food intake in wild-type mice after IP α-MSH; type: in vivo, mouse; settings: α-MSH 100 µg/kg IP, beginning of dark phase; vs basal food intake; n = 6
# Experimental: Rag^−/− mice (n = 6), bred in a specific-pathogen-free area, were generously provided by Professor Olivier Boyer and a person, Inserm 1234, Rouen. Rag^−/− and C57Bl/6 male mice were individually housed in BioDaq® cages (Research Diets Inc., New Brunswick, NJ, USA) for 7 days, and the basal food intake of each animal was measured during the first 4 h of the dark phase. At day 8, IP injections of α-MSH (100 µg/kg, Bachem) were performed at the beginning of the dark phase. Individual food intake after injection was compared to the basal food intake of the pretreatment period.
# Upon arrival into the animal facility, male C57Bl/6 mice (7 weeks – n=6) purchased from Janvier Labs and Rag^-/- mice (generated by the Inserm UMR905 laboratory in a specific-pathogen-free area, n=6) were housed in standard cages (3 mice per cage) in environmental conditions (23 ± 1 °C, 12:12 h light-dark cycle) with standard pellet rodent chow and water available ad libitum. After 7 days of acclimatization, animals were individually housed in BioDaq® cages (Research Diets Inc., New Brunswick, NJ, USA) that provide automatic food intake measurements. During 7 days, the basal food intake of each animal was measured during the first 4 hours of the dark phase. At day 8, intraperitoneal injections of a-MSH (100 µg/kg, Bachem) were performed at the beginning of the dark phase. […]
# [4] = test system: control HEK 293 cells lacking MC4R; test: cAMP production by control HEK 293 cells lacking MC4R; settings: 15 min at 23 °C
# Chain of human melanocortin 4 receptor (human) (P32245 whole entry): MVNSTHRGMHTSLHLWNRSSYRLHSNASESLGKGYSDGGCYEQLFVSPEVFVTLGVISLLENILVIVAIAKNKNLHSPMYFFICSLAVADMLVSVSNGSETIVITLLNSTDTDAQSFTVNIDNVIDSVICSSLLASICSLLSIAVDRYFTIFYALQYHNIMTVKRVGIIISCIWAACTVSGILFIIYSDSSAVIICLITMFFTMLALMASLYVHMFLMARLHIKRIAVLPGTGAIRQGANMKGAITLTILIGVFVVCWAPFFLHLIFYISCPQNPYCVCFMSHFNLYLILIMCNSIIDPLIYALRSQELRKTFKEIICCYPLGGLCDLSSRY
substance,measurement,setting,value
α-melanocyte-stimulating hormone (peptide),"EC50 of cAMP release by hMC4R-expressing HEK 293 cells, IC formed by α-MSH and IgG from controls and ED patients, against free α-MSH",[1],50%
same,fold lower affinity than in IC with IgG from controls,[2],10 fold
"agouti-related protein (SSRRCVRLHESCLGQQVPCCDPCATCYCRFFNAFCYCRKLGTAMNPCSRT; UniProt O00253 83-132, looked up) [AgRP]",antagonism of α-MSH- and α-MSH/IgG IC-induced cAMP production,human MC4R,antagonized both α-MSH- and α-MSH/IgG IC-induced cAMP production
adrenocorticotropic hormone [ACTH],functional activity when central part of ACTH is bound by IgG,[3],preserved its functional activity to stimulate cortisol secretion
α-melanocyte-stimulating hormone [α-MSH],"anorexigenic effect, cumulative food intake at 30 min",male Sprague-Dawley rats,significant anorexigenic effect
same,"anorexigenic effect, cumulative food intake at 120 min",male Sprague-Dawley rats,significant anorexigenic effect
same,4-h food intake in wild-type mice,wild-type C57Bl/6 mice,significantly reduced food intake
same,"cAMP production by control HEK 293 cells lacking MC4R, in words",[4],no significant α-MSH-induced cAMP production; also recorded: did not observe cAMP production
